Experimental data reported in patent US6562355B1, “Comixture of dextran sulfate/escin for treating skin redness/edema and/or sensitive skin” (Societe L'Oreal S.A., priority 1999, dated 2003).
Several values for one entry are separate records, joined by “and”; a condition that tells them apart may be missing. Identical values can stand only once.

Assays:
[1] = solutions of pH ranging from 4 to 10 at room temperature; cited from earlier work
[2] = system: fragments of normal human skin kept alive (eyelid); experiment: Anti-edema and vasodilation-inhibitory effect in human skin kept alive after induction with substance P/TNFα/arachidonic acid (cocktail A); semi-quantitative histological scores; assay type: cell-based; conditions: skin + cocktail A (5 μM substance P, arachidonic acid 40 mg/ml, TNFα 50 ng/ml) 2 hours, 37° C., topical, escin 0.075%, dextran sulfate 0.20%, 3 donors; for Vasodilation (histological score of dilation of the capillaries): score 0 (no dilation) to 4 (very large dilation), cocktail A alone 2.2, control skin 0.37; for Edema (histological score): score 0 (no edema) to 4 (very considerable edema), cocktail A alone 2.8, control skin 0.62
Excerpt: The goal of this study was to visualize the anti-edema effect and the vasodilation-inhibitory effect of intimate admixture of dextran sulfate and escin, in a model of skin kept alive (eyelid) after the induction of edema and vasodilation by a neuromediator (substance P)/α-type tumor necrosis factor (TNFα)/arachidonic acid combination.
Fragments of normal human skin from 3 different donors (plastic surgery), mechanically freed of the subcutaneous fat and the inner layer of the dermis, were each placed on a culture insert consisting of a porous membrane (pores 12 μm in diameter) (Costar), the dermal portion of the skin fragment being placed in contact with the porous membrane. The assembly thus prepared was positioned over the wells of a Costar brand 12-well culture plate and maintained for 24 hours at 37° C. in an incubator under a humidified atmosphere containing 5% CO2.
DMEM culture medium (Gibco-BRL) containing 100 U/ml of penicillin and 100 μg/ml of streptomycin, 200 μg/ml of L-glutamine and 0. 1% fetal calf serum (D.A.P., France), was added to the bottom of the wells such that the liquid reached the porous membrane without passing it. Thus mounted, the skin was in contact via its lower face surface through the porous membrane with the culture medium, transport taking place by slow diffusion between the two compartments.
The edema and the vasodilation were produced experimentally by placing on the surface of the skin a mixture in a culture medium consisting of 25 μl of a neuromediator (5 μM substance P), arachidonic acid (25 μl of a solution at a concentration of 40 mg/ml in glycerol) and TNFα (50 ng/ml), hereinafter referred to as “cocktail A”. These substances were maintained in contact with the skin for 2 hours.
The test products were applied topically onto the skin fragments during the induction of the edema and the vasodilation.
The escin, at a final concentration of 0.075%, was dissolved in water.
The dextran sulfate, at a final concentration of 0.20%, was dissolved in propylene glycol.
The temperature was maintained at 37° C. throughout the test period.
The histological analyses were carried out according to the conventional techniques known to this art, without modification of the protocols.
After treatment, the skin fragments were removed and fixed in Bouin liquid and included in paraffin for the histological analyses.
After staining with hemalun-eosin, the two (2) criteria, edema and dilation of the capillaries, were evaluated by means of semi-quantitative histological scores.
The histological evaluation was carried out in the superficial dermis and in the top part of the middle dermis on the same number of fields four (4) fields at 10× magnification). […]

[3] = cited from earlier work

| Substance | stability in solutions [1] | Vasodilation (histological score of dilation of the capillaries) [2] | Edema (histological score) [2] | solubility in water and saline solutions [3] |
| --- | --- | --- | --- | --- |
| dextran sulfate | high | 1.8 and 1.8 ± 1.04 | 2.1 and 2.1 ± 1.04 | good |
| escin [reference compound] | – | 1.5 and 1.5 ± 0.5 | 1.16 and 1.16 ± 0.77 | – |
